Data on twelve compounds can be found in ChEMBL document CHEMBL5291721, “A preclinical secondary pharmacology resource illuminates target-adverse drug reaction associations of marketed drugs” (Nat Commun, 2023).

For assay [1], the target named is T1, Adenosine receptor A3 (Homo sapiens, UniProt P0DMS8).
T1 sequence (P0DMS8 whole entry): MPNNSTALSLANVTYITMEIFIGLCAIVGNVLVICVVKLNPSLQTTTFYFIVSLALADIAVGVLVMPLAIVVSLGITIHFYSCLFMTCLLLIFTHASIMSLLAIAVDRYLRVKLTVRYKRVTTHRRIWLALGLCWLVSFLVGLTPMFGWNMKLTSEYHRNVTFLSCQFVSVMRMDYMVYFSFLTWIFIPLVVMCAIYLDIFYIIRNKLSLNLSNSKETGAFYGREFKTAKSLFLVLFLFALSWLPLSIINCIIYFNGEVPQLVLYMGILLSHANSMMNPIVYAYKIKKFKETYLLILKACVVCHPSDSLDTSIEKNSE

For assay [2], the target named is Vasopressin V1a receptor (Homo sapiens, UniProt P37288).
Sequence of Vasopressin V1a receptor (P37288 whole entry): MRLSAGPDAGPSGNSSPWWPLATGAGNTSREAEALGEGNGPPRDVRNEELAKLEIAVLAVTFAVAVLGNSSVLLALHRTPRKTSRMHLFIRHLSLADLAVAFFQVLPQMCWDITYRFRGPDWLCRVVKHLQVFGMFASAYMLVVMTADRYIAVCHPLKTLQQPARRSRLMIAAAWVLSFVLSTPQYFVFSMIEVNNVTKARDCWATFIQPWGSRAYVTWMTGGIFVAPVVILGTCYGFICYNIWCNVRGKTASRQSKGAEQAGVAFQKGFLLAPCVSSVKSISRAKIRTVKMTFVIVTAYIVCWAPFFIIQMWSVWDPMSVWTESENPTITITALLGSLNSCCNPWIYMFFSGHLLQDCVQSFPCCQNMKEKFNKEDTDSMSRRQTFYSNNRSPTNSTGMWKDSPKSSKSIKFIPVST
Assay [3] has as its target Vasopressin V2 receptor (Homo sapiens, UniProt P30518).
For assay [4], the target named is T2, B2 bradykinin receptor (Homo sapiens, UniProt P30411).
T2 sequence (P30411 whole entry): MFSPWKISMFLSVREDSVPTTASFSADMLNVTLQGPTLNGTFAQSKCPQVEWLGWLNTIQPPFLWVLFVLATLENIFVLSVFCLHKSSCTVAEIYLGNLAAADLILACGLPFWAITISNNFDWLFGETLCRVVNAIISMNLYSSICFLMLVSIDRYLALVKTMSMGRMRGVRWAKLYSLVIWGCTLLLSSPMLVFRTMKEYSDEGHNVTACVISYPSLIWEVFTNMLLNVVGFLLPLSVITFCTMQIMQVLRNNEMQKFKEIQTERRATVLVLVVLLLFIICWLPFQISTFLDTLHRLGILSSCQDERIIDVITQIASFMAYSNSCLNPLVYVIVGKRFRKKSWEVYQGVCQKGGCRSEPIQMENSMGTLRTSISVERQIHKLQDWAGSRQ

Assay [5] deals with T3, Muscarinic acetylcholine receptor M2 (Homo sapiens, UniProt P08172).
T3 sequence (P08172 whole entry): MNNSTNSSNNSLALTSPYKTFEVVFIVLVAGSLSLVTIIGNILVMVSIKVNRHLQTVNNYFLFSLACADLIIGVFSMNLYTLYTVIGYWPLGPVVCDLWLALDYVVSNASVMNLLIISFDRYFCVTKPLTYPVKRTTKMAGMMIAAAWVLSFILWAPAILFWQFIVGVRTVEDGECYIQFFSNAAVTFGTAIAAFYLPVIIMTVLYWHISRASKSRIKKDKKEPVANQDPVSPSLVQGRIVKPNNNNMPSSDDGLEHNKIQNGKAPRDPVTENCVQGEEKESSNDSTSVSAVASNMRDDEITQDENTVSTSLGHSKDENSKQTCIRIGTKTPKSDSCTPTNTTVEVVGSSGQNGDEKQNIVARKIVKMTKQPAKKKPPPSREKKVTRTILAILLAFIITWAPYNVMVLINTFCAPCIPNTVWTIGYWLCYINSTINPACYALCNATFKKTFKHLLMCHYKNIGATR
It is filed as functional, cell-based.

Assay [6] has as its target Neuronal acetylcholine receptor subunit alpha-4 (Homo sapiens, UniProt P43681).
In assay [7] the target is Delta-type opioid receptor (Homo sapiens, UniProt P41143).
Sequence of Delta-type opioid receptor (P41143 whole entry): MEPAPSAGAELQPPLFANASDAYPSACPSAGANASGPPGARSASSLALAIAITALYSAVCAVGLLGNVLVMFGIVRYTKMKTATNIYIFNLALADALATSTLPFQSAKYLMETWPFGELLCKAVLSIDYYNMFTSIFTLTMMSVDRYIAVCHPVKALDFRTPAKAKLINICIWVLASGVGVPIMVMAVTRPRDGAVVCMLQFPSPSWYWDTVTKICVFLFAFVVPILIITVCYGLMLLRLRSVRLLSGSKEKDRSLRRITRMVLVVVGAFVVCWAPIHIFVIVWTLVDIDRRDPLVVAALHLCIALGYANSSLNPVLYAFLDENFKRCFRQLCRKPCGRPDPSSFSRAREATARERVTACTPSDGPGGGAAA
In assay [8] the target is T4, Progesterone receptor (Homo sapiens, UniProt P06401).
T4 sequence (P06401 whole entry): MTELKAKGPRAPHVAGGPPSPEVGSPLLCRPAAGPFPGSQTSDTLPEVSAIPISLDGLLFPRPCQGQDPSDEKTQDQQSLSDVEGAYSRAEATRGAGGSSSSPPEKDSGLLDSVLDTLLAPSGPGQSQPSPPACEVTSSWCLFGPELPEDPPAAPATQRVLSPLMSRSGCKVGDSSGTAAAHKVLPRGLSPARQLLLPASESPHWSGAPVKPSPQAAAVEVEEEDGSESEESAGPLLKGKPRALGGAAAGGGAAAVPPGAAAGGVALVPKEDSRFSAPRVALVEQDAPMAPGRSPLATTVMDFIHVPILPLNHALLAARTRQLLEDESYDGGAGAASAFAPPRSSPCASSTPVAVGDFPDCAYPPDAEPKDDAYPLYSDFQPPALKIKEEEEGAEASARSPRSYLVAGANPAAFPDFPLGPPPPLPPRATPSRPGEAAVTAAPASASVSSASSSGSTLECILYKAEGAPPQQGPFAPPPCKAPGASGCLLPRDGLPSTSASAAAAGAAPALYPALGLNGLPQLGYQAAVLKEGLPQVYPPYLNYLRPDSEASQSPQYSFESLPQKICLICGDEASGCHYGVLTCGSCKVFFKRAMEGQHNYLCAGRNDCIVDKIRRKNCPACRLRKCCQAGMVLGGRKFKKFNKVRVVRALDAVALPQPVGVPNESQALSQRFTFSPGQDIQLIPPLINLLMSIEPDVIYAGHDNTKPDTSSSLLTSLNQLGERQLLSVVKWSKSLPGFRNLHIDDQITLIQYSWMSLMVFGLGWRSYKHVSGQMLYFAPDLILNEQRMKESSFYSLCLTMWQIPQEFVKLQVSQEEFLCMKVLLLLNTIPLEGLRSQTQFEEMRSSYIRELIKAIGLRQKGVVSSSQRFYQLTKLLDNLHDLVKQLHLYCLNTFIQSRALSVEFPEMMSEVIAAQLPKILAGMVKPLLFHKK
It is filed as functional.

For assay [9], the target named is T5, Prostaglandin G/H synthase 1 (Rattus norvegicus, UniProt Q63921).
T5 sequence (Q63921 whole entry): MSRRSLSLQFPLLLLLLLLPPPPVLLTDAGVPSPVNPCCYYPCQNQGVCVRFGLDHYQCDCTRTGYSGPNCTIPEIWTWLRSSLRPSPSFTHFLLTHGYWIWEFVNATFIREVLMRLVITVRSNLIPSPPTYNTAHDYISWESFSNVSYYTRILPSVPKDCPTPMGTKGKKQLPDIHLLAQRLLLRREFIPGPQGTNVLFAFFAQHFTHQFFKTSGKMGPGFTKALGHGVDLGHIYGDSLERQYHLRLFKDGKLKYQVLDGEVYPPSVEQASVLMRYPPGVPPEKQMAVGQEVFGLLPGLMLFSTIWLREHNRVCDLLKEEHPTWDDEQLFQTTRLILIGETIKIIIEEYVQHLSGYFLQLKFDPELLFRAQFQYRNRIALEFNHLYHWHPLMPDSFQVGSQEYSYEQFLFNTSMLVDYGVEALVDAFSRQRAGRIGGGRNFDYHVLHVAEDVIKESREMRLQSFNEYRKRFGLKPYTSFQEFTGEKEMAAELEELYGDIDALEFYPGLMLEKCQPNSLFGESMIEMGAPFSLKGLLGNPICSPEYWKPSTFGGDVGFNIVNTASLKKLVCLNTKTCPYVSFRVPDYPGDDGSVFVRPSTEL
It is filed as functional.

A value given as a limit tells only on which side of the number the result lay.
Also: assay procedure not described here.

Sequence of Vasopressin V2 receptor (P30518 whole entry): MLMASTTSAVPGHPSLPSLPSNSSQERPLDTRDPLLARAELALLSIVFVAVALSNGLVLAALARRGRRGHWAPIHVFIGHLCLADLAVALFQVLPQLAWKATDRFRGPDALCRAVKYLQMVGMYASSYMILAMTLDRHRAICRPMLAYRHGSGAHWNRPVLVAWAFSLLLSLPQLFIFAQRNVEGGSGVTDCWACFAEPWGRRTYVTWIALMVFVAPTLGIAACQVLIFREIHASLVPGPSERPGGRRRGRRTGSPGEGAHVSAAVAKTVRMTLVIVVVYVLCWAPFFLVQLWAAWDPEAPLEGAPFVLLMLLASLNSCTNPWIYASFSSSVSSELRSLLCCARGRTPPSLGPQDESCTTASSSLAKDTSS
Sequence of Neuronal acetylcholine receptor subunit alpha-4 (P43681 whole entry): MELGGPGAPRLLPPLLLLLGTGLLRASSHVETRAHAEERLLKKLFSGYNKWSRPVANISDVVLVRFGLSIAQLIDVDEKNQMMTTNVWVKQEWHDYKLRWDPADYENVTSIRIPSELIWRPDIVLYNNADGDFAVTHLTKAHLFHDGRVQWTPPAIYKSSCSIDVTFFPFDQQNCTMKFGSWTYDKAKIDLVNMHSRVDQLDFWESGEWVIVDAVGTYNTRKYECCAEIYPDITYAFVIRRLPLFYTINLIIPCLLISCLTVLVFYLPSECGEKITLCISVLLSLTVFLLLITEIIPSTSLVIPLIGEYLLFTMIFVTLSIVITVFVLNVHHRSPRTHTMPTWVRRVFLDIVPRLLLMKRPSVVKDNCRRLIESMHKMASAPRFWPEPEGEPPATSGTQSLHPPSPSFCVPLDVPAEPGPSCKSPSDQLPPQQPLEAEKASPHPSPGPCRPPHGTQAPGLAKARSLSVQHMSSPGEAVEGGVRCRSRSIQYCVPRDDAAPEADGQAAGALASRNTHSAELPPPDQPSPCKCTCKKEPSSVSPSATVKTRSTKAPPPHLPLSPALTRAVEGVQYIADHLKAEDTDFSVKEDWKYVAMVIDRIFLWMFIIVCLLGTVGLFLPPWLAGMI

Regarding `COc1ccccc1OCCNCC(O)c1ccc(C)c(S(N)(=O)=O)c1` (stereo not given) [AMOSULALOL], the AC50 in [1], in assay [2], in [3], in assay [4], in [5] and in assay [6] was greater than 30 µM in each case. The AC50 in assay [7], in assay [8] and in assay [9] was greater than 30 µM in each case.

As for `C[C@H](CSC(=O)c1ccccc1)C(=O)N1C[C@@H](Sc2ccccc2)C[C@H]1C(=O)O` [ZOFENOPRIL], the AC50 in [1], in assay [2], in assay [3], in assay [4], in [5] and in assay [6] was greater than 10 µM each time. The concentration at half-maximal activity (AC50) (as a rule, the midpoint of the concentration-response curve, whichever way the signal moves) was greater than 30 µM in [7], greater than 10 µM in assay [8] and greater than 10 µM in [9].

As for `CC(C)C(=O)c1c(C(C)C)nn2ccccc12` [IBUDILAST], the AC50 in assay [1], in assay [2], in [3], in assay [4], in [5] and in [6] was greater than 30 µM throughout. Besides, the AC50 in assay [7], in assay [8] and in assay [9] was greater than 30 µM each time.

`C[C@]1(O)CC[C@H]2[C@@H]3CCC4=CC(=O)CC[C@]4(C)[C@@]3(F)[C@@H](O)C[C@@]21C` [FLUOXYMESTERONE]: the AC50 in [1], in assay [2], in assay [3], in assay [4], in [5] and in assay [6] was greater than 10 µM each time. Besides, the half-maximal activity concentration (AC50) in assay [7] is greater than 30 µM; in assay [8] it was 0.074 µM; in [9], greater than 10 µM.

Consider `C=CCC1(C(C)CC)C(=O)NC(=O)NC1=O` (stereo not given) [TALBUTAL], for which the AC50 in assay [1], in assay [2], in assay [3], in assay [4], in [5] and in assay [6] was greater than 10 µM each time. Further, the AC50 is greater than 30 µM in assay [7], greater than 10 µM in assay [8] and greater than 10 µM in [9].

As to `Cc1cc(O)c(C(=O)N[C@@H](C(=O)N[C@@H]2C(=O)N3C(C(=O)O)=C(CSc4nnnn4C)CS[C@H]23)c2ccc(O)cc2)cn1` [CEFPIRAMIDE], the AC50 in assay [1], in assay [2], in assay [3], in [4], in assay [5] and in [6] was greater than 30 µM throughout. For the same compound, the AC50 in assay [7], in assay [8] and in assay [9] was greater than 30 µM in each case.

For the compound `CCCN(CCC)C(=O)C(CCC(=O)O)NC(=O)c1ccccc1` (stereo not given) [PROGLUMIDE], the half-maximal activity concentration (AC50) in [1] was greater than 30 µM; in [2] it was greater than 30 µM; in [3], greater than 30 µM; in assay [4] it was greater than 30 µM; in assay [5] it was greater than 10 µM; in [6], greater than 30 µM. In addition, the AC50 in assay [7], in [8] and in assay [9] was greater than 30 µM throughout.

As for `CO[C@@H]1[C@@H](O[C@@H]2O[C@H](C)[C@@H](O[C@H]3C[C@@](C)(O)[C@@H](OC(=O)CC(C)C)[C@H](C)O3)[C@H](N(C)C)[C@H]2O)[C@@H](CC=O)C[C@@H](C)[C@@H](O)/C=C/C=C/C[C@@H](C)OC(=O)C[C@H]1OC(C)=O` [JOSAMYCIN], the AC50 in assay [1], in assay [2], in assay [3], in assay [4], in [5] and in assay [6] was greater than 10 µM in each case. Moreover, the values for the half-maximal activity concentration (AC50) in assay [7], in [8] and in [9] were greater than 30 µM, greater than 10 µM and greater than 10 µM, respectively.

With `O=C(O)/C=C/c1ccc(Cn2ccnc2)cc1` [OZAGREL], the AC50 in assay [1], in [2], in assay [3], in assay [4], in assay [5] and in assay [6] was greater than 30 µM throughout. Besides, the AC50 in [7], in [8] and in [9] was greater than 30 µM throughout.

Regarding `COc1ccc2c3c1O[C@H]1C(=O)CC[C@@]4(O)[C@@H](C2)N(C)CC[C@]314` [OXYCODONE], the AC50 in assay [1], in assay [2], in assay [3], in assay [4], in [5] and in assay [6] was greater than 30 µM throughout. Also, the AC50 in assay [8] and in [9] was greater than 30 µM throughout.

On to `CO/N=C(\C(=O)N[C@@H]1C(=O)N2C(C(=O)O)=C(CSc3nnnn3C)CS[C@H]12)c1csc(N)n1` [CEFMENOXIME], for which the half-maximal activity concentration (AC50) in [1], in assay [2], in assay [3], in [4], in assay [5] and in assay [6] was greater than 30 µM throughout. Further, the AC50 in assay [8] and in assay [9] was greater than 30 µM throughout.

On to `CCCCCCOc1ccccc1C(N)=O` [EXALAMIDE], for which the AC50 in [1], in [2], in assay [3], in [4], in [6] and in assay [7] was greater than 30 µM each time. Besides, the AC50 in assay [8] and in assay [9] was greater than 30 µM throughout.
